From US6706663B2, “Herbicidal 3-heterocyclic substituted benzisothiazole and benzisoxazole compounds” (Wyeth, priority 2000, dated 2004)

Columns and labels:
[1] = system: ECHCG (Echinochloa crus-galli); assay: Postemergence herbicidal evaluation; assay type: in vivo, (L.) Beau
Outline: (§1)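 Visual 0–9 injury scores versus control plants, covering stand, vigour, malformation, size, chlorosis and general appearance, taken four to five weeks post-spray and averaged over replicate tests. Plants were sprayed at roughly two weeks old and held on greenhouse benches.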

CYPIR (Cyperus iria) = assay: Flooded paddy, preemergence weed control; assay type: in vivo; settings: rated 3-4 weeks after treatment, 0-9 rating scale
Outline: (§2)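 Under paddy conditions, seeds or vegetative propagules go into the top 0.5 cm of silt loam; the soil is then flooded to 1.5–3 cm and kept so. Treated pots stay in a greenhouse; response is rated 0-9 visually versus control.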

[2] = system: GLXMAW (Soybean, Williams); assay: Preemergence herbicidal evaluation; assay type: in vivo, Glycine max, (L.) Merr. cv Williams; settings: preemergence, rated 4-5 weeks after treatment
[3] = system: TRZAWR (Wheat, Winter, cv Riband); assay: Preemergence herbicidal evaluation; assay type: in vivo, Triticum aestivum; settings: preemergence, rated 4-5 weeks after treatment
Outline: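 Steps: mix seeds with potting soil; plant on ~1 inch soil per cup; spray compound in aqueous acetone; hold on greenhouse benches with routine watering; rate 0–9 visually against control at 4–5 weeks.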

ORYSAT (Rice, Tebonnet) [4] = assay: Postemergence herbicidal evaluation; assay type: in vivo, Oryza sativa, (L.) Tebonnet
Outline: as §1

ZEAMX (Corn, Field) = assay: Postemergence herbicidal evaluation; assay type: in vivo, Zea mays, L.
Outline: as §1

ORYSAT (Rice, Tebonnet) [5] = assay: Preemergence herbicidal evaluation; assay type: in vivo, Oryza sativa, (L.) Tebonnet; settings: preemergence, rated 4-5 weeks after treatment
[6] = system: SAGPY (Sagittaria pygmaea); assay: Flooded paddy, preemergence weed control; assay type: in vivo, L.; settings: rated 3-4 weeks after treatment, 0-9 rating scale
Outline: as §2

[7] = system: ECHORC (Echinochloa oryzoides); assay: Flooded paddy, preemergence weed control; assay type: in vivo, Echinochloa oryzoides (Ard.) Fritsch.; settings: rated 3-4 weeks after treatment, 0-9 rating scale
Outline: as §2

[8] = system: AMBEL (Ambrosia artemisifolia); assay: Postemergence herbicidal evaluation; assay type: in vivo, L.
Outline: as §1

[9] = system: CASOB (Cassia obtusifolia); assay: Postemergence herbicidal evaluation; assay type: in vivo, L.
Outline: as §1

[10] = system: CHEAL (Chenopodium album); assay: Postemergence herbicidal evaluation; assay type: in vivo, L.
Outline: as §1

[11] = system: IPOHE (Ipomoea hederacea); assay: Preemergence herbicidal evaluation; assay type: in vivo, (L.) Jacq.; settings: preemergence, rated 4-5 weeks after treatment

Row | Structure (SMILES) | Postemergence herbicidal rating, ECHCG ([1]; rate 0.0320 kg/ha) | Postemergence herbicidal rating, ECHCG ([1]; rate 0.0620 kg/ha) | herbicidal rating, CYPIR (CYPIR (Cyperus iria); rate 0.0080 kg/ha) | herbicidal rating, CYPIR (CYPIR (Cyperus iria); rate 0.0320 kg/ha) | herbicidal rating, CYPIR (CYPIR (Cyperus iria); rate 0.1250 kg/ha) | GLXMAW preemergence herbicidal rating ([2]; Rate 0.0620 kg/ha) | GLXMAW preemergence herbicidal rating ([2]; Rate 0.1250 kg/ha) | GLXMAW preemergence herbicidal rating ([2]; Rate 0.2500 kg/ha) | TRZAWR preemergence herbicidal rating ([3]; Rate 0.0620 kg/ha) | TRZAWR preemergence herbicidal rating ([3]; Rate 0.1250 kg/ha) | TRZAWR preemergence herbicidal rating ([3]; Rate 0.2500 kg/ha) | Postemergence herbicidal rating, ORYSAT (ORYSAT (Rice, Tebonnet) [4]; rate 0.0320 kg/ha) | Postemergence herbicidal rating, ORYSAT (ORYSAT (Rice, Tebonnet) [4]; rate 0.0620 kg/ha) | Postemergence herbicidal rating, ZEAMX (ZEAMX (Corn, Field); rate 0.0320 kg/ha) | Postemergence herbicidal rating, ZEAMX (ZEAMX (Corn, Field); rate 0.0620 kg/ha) | ORYSAT preemergence herbicidal rating (ORYSAT (Rice, Tebonnet) [5]; Rate 0.0620 kg/ha) | ORYSAT preemergence herbicidal rating (ORYSAT (Rice, Tebonnet) [5]; Rate 0.1250 kg/ha) | ORYSAT preemergence herbicidal rating (ORYSAT (Rice, Tebonnet) [5]; Rate 0.2500 kg/ha) | herbicidal rating, SAGPY ([6]; rate 0.0080 kg/ha) | herbicidal rating, SAGPY ([6]; rate 0.0320 kg/ha) | further results
1 | Cn1c(C(F)(F)F)cc(=O)n(-c2ccc3snc(C4OCC(C)(C)CO4)c3c2)c1=O [Compound 36, 3-[3(5,5-dimethyl-m-dioxan-2-yl)-1,2-benzisothiazol-5-yl]-1-methyl-6-(trifluoromethyl)uracil] | 1.0 | 3.0 | 0.0 | 9.0 | 9.0 | 8.0 | 9.0 | 9.0 | 9.0 | 9.0 | 9.0 | 4.5 | 7.0 | 5.0 | 6.0 | 7.5 | 9.0 | 9.0 | 0.0 | 3.5 | herbicidal rating, SAGPY ([6]; rate 0.1250 kg/ha): 9.0; herbicidal rating, ECHORC ([7]; rate 0.0080 kg/ha): 5.0; herbicidal rating, ECHORC ([7]; rate 0.0320 kg/ha): 8.5; herbicidal rating, ECHORC ([7]; rate 0.1250 kg/ha): 9.0; Postemergence herbicidal rating, AMBEL ([8]; rate 0.0320 kg/ha): 9.0; Postemergence herbicidal rating, AMBEL ([8]; rate 0.0620 kg/ha): 9.0; Postemergence herbicidal rating, CASOB ([9]; rate 0.0320 kg/ha): 9.0; Postemergence herbicidal rating, CASOB ([9]; rate 0.0620 kg/ha): 9.0; Postemergence herbicidal rating, CHEAL ([10]; rate 0.0320 kg/ha): 7.0; Postemergence herbicidal rating, CHEAL ([10]; rate 0.0620 kg/ha): 9.0; IPOHE preemergence herbicidal rating ([11]; Rate 0.0620 kg/ha): 3.5; IPOHE preemergence herbicidal rating ([11]; Rate 0.1250 kg/ha): 6.5; IPOHE preemergence herbicidal rating ([11]; Rate 0.2500 kg/ha): 9.0
2 | CC1CCOC(c2nsc3ccc(-n4c(=O)cc(C(F)(F)F)n(C)c4=O)cc23)O1 (stereo not drawn) [Compound 37, 1-methyl-3-[3-(4-methyl-m-dioxan-2-yl)-1,2-benzisothiazol-5-yl]-6-(trifluoromethyl)uracil] | 4.0 | 4.0 | 0.0 | 9.0 | 9.0 | 9.0 | 9.0 | 9.0 | 9.0 | 9.0 | 9.0 | 4.5 | 5.0 | 6.0 | 6.0 | 9.0 | 9.0 | 9.0 | 0.0 | 7.0 | herbicidal rating, SAGPY ([6]; rate 0.1250 kg/ha): 9.0; herbicidal rating, ECHORC ([7]; rate 0.0080 kg/ha): 3.0; herbicidal rating, ECHORC ([7]; rate 0.0320 kg/ha): 9.0; herbicidal rating, ECHORC ([7]; rate 0.1250 kg/ha): 9.0; Postemergence herbicidal rating, AMBEL ([8]; rate 0.0320 kg/ha): 9.0; Postemergence herbicidal rating, AMBEL ([8]; rate 0.0620 kg/ha): 9.0; Postemergence herbicidal rating, CASOB ([9]; rate 0.0320 kg/ha): 4.0; Postemergence herbicidal rating, CASOB ([9]; rate 0.0620 kg/ha): 5.0; Postemergence herbicidal rating, CHEAL ([10]; rate 0.0320 kg/ha): 5.0; Postemergence herbicidal rating, CHEAL ([10]; rate 0.0620 kg/ha): 9.0; IPOHE preemergence herbicidal rating ([11]; Rate 0.0620 kg/ha): 7.0; IPOHE preemergence herbicidal rating ([11]; Rate 0.1250 kg/ha): 8.0; IPOHE preemergence herbicidal rating ([11]; Rate 0.2500 kg/ha): 7.0
